ChEMBL document CHEMBL1145695, “Biologically active acylglycerides from the berries of saw-palmetto (Serenoa repens)” (J Nat Prod, 1997)
In brackets after ≈: the same amount, converted by molar mass.

Tests used:
[1] = Toxicity against brine shrimp; format: organism-based; details: artemia, in vivo
PC-3 = assay: Cytotoxicity against human PC3 cells after 7 days by MTT assay; format: functional; details: PC-3, 168 h, read-out: ED50 (the source's name)
A498 = assay: Cytotoxicity against human A498 cells after 7 days by MTT assay; format: functional; details: A498, 168 h, read-out: ED50 (the source's name)
MIA PaCa-2 = assay: Cytotoxicity against human MIAPaCa2 cells after 7 days by MTT assay; format: functional; details: MIA PaCa-2, 168 h, read-out: ED50 (the source's name)

SMILES | LC50 [1] [µg/mL] | EC50 (PC-3) [µg/mL] | EC50 (A498) [µg/mL] | EC50 (MIA PaCa-2) [µg/mL]
CCCCCCCCCCCCCC(=O)OCC(O)CO (stereo unspecified) | 53.3 (≈ 176 µM) | 8.84 (≈ 29.2 µM) | 3.58 (≈ 11.8 µM) | 1.87 (≈ 6.18 µM)
COc1cccc2c1C(=O)c1c(O)c3c(c(O)c1C2=O)C[C@@](O)(C(=O)CO)C[C@@H]3O[C@H]1C[C@H](N)[C@H](O)[C@H](C)O1 [DOXORUBICIN] |  | 0.0119 (≈ 0.0219 µM) | 0.0122 (≈ 0.0224 µM) | 0.0392 (≈ 0.0721 µM)
CCCCCCCCCCCC(=O)OCC(O)CO (stereo unspecified) [GLYCEROL MONOLAURATE] | 79.2 (≈ 289 µM) | 23.3 (≈ 84.8 µM) | 3.77 (≈ 13.7 µM) | 2.33 (≈ 8.49 µM)
